The structures appear in SMILES notation. Counter-ions that a name gives are not always drawn. Like-named read-outs stand apart in the source and are kept apart here.

This is an account of results in patent publication US8796244B2, “Imidazopyridine derivatives as inhibitors of receptor tyrosine kinases” (Astex Therapeutics Ltd, priority 2008, dated 2014).

For assay [1], the system named is parental wild-type Ba/F3 cells. Description: Ba/F3 (WT) cell proliferation assay (Alamar Blue). Format: cell-based. The note with it: Mus musculus; for inhibition at 10 µM: BaF3, read-out: BaF3 WT prolif, % inhibition.
Assay [2] deals with LP-1 cell line (FGF-1/Heparin induced pERK). Description: Cell-based pERK ELISA, LP-1 cells. The note with it: Homo sapiens, LP-1, read-out: LP-1 pERK ELISA (μM).
[3] abbreviates: BaF3, 72 hours, Alamar Blue, read-out: BaF3 WT prolif.
[4] abbreviates: BaF3, 72 h, read-out: BaF3 WT prolif (μM).

With `O=C(NCC(F)(F)F)Nc1cccc(-c2cnc3cc(-c4ccc(=O)[nH]n4)ccn23)c1` [Example 52, 1-{3-[7-(6-Oxo-1,6-dihydropyridazin-3-yl)-imidazo[1,2-a]pyridin-3-yl]-phenyl}-3-(2,2,2-trifluoro-ethyl)-urea], the inhibition at 10 µM in assay [1] was 51%. Besides, the IC50 in assay [2] amounted to 0.33 µM.
Consider `COc1nccc(-c2ccn3c(-c4cccc(NC(=O)NCC(F)(F)F)c4)cnc3c2)n1` [Example 181], for which the IC50 in assay [1] (setting [3]) turned out to be 0.49 µM; in assay [2], 0.046 µM.
Regarding `O=C(NCC(F)(F)F)Nc1cccc(-c2cnc3cc(-c4cnn(C5CCCNC5)c4)ccn23)c1` (centres unmarked) [Example 40, 1-{3-[7-(1-Piperidin-3-yl-1H-pyrazol-4-yl)-imidazo[1,2-a]pyridin-3-yl]-phenyl}-3-(2,2,2-trifluoro-ethyl)-urea formate], the IC50 was determined as 4 µM in assay [1] (setting [4]) and 0.046 µM in assay [2].
Take `Cc1cnc(N)nc1-c1ccn2c(-c3cccc(NC(=O)NCC(F)(F)F)c3)cnc2c1` [Example 176]: the inhibition at 10 µM in assay [1] worked out at 59%. In assay [2], the IC50 stood at 0.33 µM.
For `NC(=O)Nc1cccc(-c2cnc3cc(-c4ccc(F)cc4)ccn23)c1` [Example 154, {3-[7-(4-Fluoro-phenyl)-imidazo[1,2-a]pyridin-3-yl]-phenyl}-urea], the results for the IC50 in assay [1] (setting [3]) and in assay [2] were 5.6 µM and 0.086 µM, respectively.
Take `CCOc1cccc(-c2ccn3c(-c4cccc(NC(=O)NCC(F)(F)F)c4)cnc3c2)n1` [Example 99, 1-{3-[7-(6-Ethoxy-pyridin-2-yl)-imidazo[1,2-a]pyridin-3-yl]-phenyl}-3-(2,2,2-trifluoro-ethyl)-urea bis-hydrochloride]: the results for the IC50 in assay [1] (setting [4]) and in assay [2] were 0.32 µM and 0.063 µM, respectively.
Regarding `O=C1CN(c2ccc(-c3ccn4c(-c5cccc(NC(=O)NCC(F)(F)F)c5)cnc4c3)nn2)CCN1` [Example 95, 1-(3-{7-[6-(3-Oxo-piperazin-1-yl)-pyridazin-3-yl]-imidazo[1,2-a]pyridin-3-yl}-phenyl)-3-(2,2,2-trifluoro-ethyl)-urea bis-hydrochloride], the inhibition at 10 µM in assay [1] came out at 0%. The IC50 in assay [2] is 3.4 µM.
On to `Nc1ccc(-c2ccn3c(-c4cccc(NC(=O)NCC(F)(F)F)c4)cnc3c2)nc1` [Example 124, 1-{3-[7-(5-Amino-pyridin-2-yl)-imidazo[1,2-a]pyridin-3-yl]-phenyl}-3-(2,2,2-trifluoro-ethyl)-urea hydrochloride], for which the IC50 in assay [1] (setting [4]) turned out to be 0.27 µM; in assay [2] it was 0.024 µM.
`O=C(NCC(F)(F)F)Nc1cccc(-c2cnc3cc(-c4nccc(C(F)(F)F)n4)ccn23)c1` [Example 46, 1-(2,2,2-Trifluoro-ethyl)-3-{3-[7-(4-trifluoromethyl-pyrimidin-2-yl)-imidazo[1,2-a]pyridin-3-yl]-phenyl}-urea hydrochloride]: the inhibition at 10 µM in assay [1] was determined as 27%. Also, in assay [2], the IC50 worked out at 0.18 µM.
On to `Cc1cnc(-c2ccn3c(-c4cccc(NC(=O)NCC(F)(F)F)c4)cnc3c2)cn1` [Example 93, 1-{3-[7-(5-Methyl-pyrazin-2-yl)-imidazo[1,2-a]pyridin-3-yl]-phenyl}-3-(2,2,2-trifluoro-ethyl)-urea], for which the IC50 in assay [1] (setting [3]) came to 0.043 µM; in assay [2] it was 0.065 µM.
As for `Cn1cncc1C#Cc1ccn2c(-c3cccc(NC(=O)NCC(F)(F)F)c3)cnc2c1` [Example 13B, 1-{3-[7-(3-Methyl-3H-imidazol-4-ylethynyl)-imidazo[1,2-a]pyridin-3-yl]-phenyl}-3-(2,2,2-trifluoro-ethyl)-urea dihydrochloride], the inhibition at 10 µM in assay [1] amounted to 44%. The IC50 in assay [2] worked out at 0.031 µM.
Consider `Cc1ccnc(-c2ccn3c(-c4cccc(NC(=O)NCC(F)(F)F)c4)cnc3c2)n1` [Example 59, 1-{3-[7-(4-Methyl-pyrimidin-2-yl)-imidazo[1,2-a]pyridin-3-yl]-phenyl}-3-(2,2,2-trifluoro-ethyl)-urea hydrochloride], for which the IC50 in assay [1] (setting [4]) is 5.1 µM; in assay [2], 0.1 µM.
On to `COc1ccnc(-c2ccn3c(-c4cccc(NC(=O)NCC(F)(F)F)c4)cnc3c2)n1` [Compound 336], for which the IC50 stood at 0.46 µM in assay [1] (setting [3]) and 0.074 µM in assay [2].
